Source: patent publication US9220680B2, “Compositions and methods for localized drug delivery through mammary papillae” (South Dakota State University, priority 2012, dated 2015)
“Also recorded” adds a separate entry of the source. Read-outs that look alike come from different tables or passages of the source.

What was measured:
[1] = Transmammary permeation across porcine mammary papilla with and without removal of the keratin plug (Experiments 7-10); format: in vitro ADME; settings: porcine mammary papilla
Source text: Keratin plug was removed from human and porcine mammary papilla using an alcoholic cotton swab. The swab was gently rubbed on the surface of the mammary papilla. The mammary papilla was observed under the microscope to confirm the removal of the plug from the surface and to confirm that epidermis of the mammary papilla was not damaged during this procedure.
The drug solutions were spiked with radioactive substances. […] Receptor medium was PBS with 7.4 pH.
(§1) Mammary papillae tissues were thawed. Keratin plugs were removed from the mammary papilla tissues using swabs with ethanol. […] The drug solutions were spiked with radioactive substances. […] Receptor medium was PBS with 7.4 pH.
as §1
Mammary papillae tissues were thawed. Keratin plugs were removed from the mammary papilla tissues using swabs with ethanol. […] The drug solutions were spike with radioactive substances. […] Receptor medium was PBS with 7.4 pH.

[2] = Permeation across human breast skin (Experiments 16-18); format: in vitro ADME; settings: human breast skin, value (SEM)
Source text: Mammary papillae and skin tissues were thawed. Keratin plugs were removed from the mammary papilla tissues using swabs with ethanol. […] The drug solutions were spiked with radioactive substances. […] Receptor medium was PBS with 7.4 pH. […] Results may be seen in FIG. 41 and Table 20.
Mammary papillae and skin tissues were thawed. Keratin plugs were removed from the mammary papilla tissues using swabs with ethanol. […] The drug solutions were spiked with radioactive substances. […] Receptor medium was PBS with 7.4 pH. […] Results may be seen in FIG. 42 and Table 22. […]

[3] = Biodistribution of 5FU in rats 6 hours after intraductal and intravenous injection (Experiment 23); format: in vivo, Sprague-Dawley rats; settings: rat
Method: (§2) The hair on the skin of the rats was removed using a hair removing formulation. The treatment was given after 24 hours to make sure the skin is recovered if damaged or altered due to the hair removal treatment.
(§3) Next day, the rats were placed under controlled Isoflurane anesthesia. Now 500 μl of Blood samples were collected from each animal before beginning the experiment, by retro-orbital technique, as a control. For intraductal injection the mammary papilla to be treated was gently wiped with an alcoholic cotton swab to remove the keratin plug. Now 100 μl of 5FU solution in saline (10 mg/ml) was injected into the duct of the mammary papilla under a stereo-microscope. After this the animal was removed from anesthesia and placed into the cage. In case of intravenous injection, similar to intraductal, 100 μl of 5FU solution in saline (10 mg/ml) was injected into the tail vein and the animal was placed into the cage for 6 hours. At the end of 6 hours 500 μl of blood sample was collected. After this the rats were euthanized. Now for intraductal injection the treated area of the rat was cleaned with water. The rat was opened from the abdominal skin. Treated mammary papilla and mammary gland existing underneath the treated mammary papilla was excised and collected. Lateral mammary papilla and mammary gland was collected along with distant mammary papilla and mammary gland, as controls. Followed by this other organs including heart, brain, liver, spleen, kidneys and lungs were collected. In case of intravenous treatment, blood was collected and mammary tissues (mammary papilla, mammary gland and surrounding breast skin) was collected along with other organs including heart, brain, liver, spleen, kidneys and lungs. All the tissues were weighed and then mechanically homogenized to extract the drug. The homogenates were mixed with hydrogen peroxide solution (30% v/v) and then radioactivity into the samples was measured by liquid scintillation counting. Similarly blood samples were centrifuged and the supernatants were analyzed by scintillation counting. Results may be seen in FIG. 49, Table 28 and Table 29.

[4] = Biodistribution of 5FU in rats 30 minutes after intraductal and intravenous injection (Experiment 24); format: in vivo, Sprague-Dawley rats; settings: rat; for Drug per gram tissue of mammary papilla: 30 min, n=1
Method: as §2
as §3, with “50” for “100”, “30 minutes.” for “6 hours.”, “30 minutes” for “6 hours”, “50, Tables 30-31.” for “49, Table 28 and Table 29.”

[5] = cited from earlier work
[6] = rat

O=c1[nH]cc(F)c(=O)[nH]1 [5FU, 5-fluorouracil]
Transmammary flux [1]: 10.79 μg/sq·cm/h | Change of permeation upon removal of the keratin plugs (in words) ([1]; donor in 50:50 ethanol:water, 48 hours): increases slightly, though statistically not significant | lag time ([2]; 5FU 20 mg/ml in 1:1 ethanol:water): 3.64 (0.37) hours | cumulative amount permeated ([2]; 5FU 20 mg/ml, 48 hours): 2.69 (0.22) μmole | Drug retention in tissue ([2]; 5FU 20 mg/ml, end of 48 hours): 9.56 (1.11) umole/g of tissue | Flux ([2]; 5FU 20 mg/ml): 0.08 (0.01) μmole/cm^2/hour | 5FU in vital organs of the body ([3]; intraductal and intravenous injection): significant amount of 5FU in vital organs of the body including kidneys, liver and brain | Drug per gram tissue, mammary gland ([3]; intraductal injection): 0 µmol/g | Drug per gram tissue, surrounding skin ([3]; intraductal injection): 0.23 µmol/g | Drug per gram tissue of mammary papilla ([3]; intraductal injection 100 μl of 10 mg/ml 5FU in saline): 1.36 µmol/g | Drug per gram tissue, mammary gland ([3]; intravenous injection): 0 µmol/g | Drug per gram tissue, surrounding skin ([3]; intravenous injection): 0 µmol/g | Drug per gram tissue of mammary papilla ([3]; intravenous injection 100 μl of 10 mg/ml 5FU in saline): 0 µmol/g | Drug per gram tissue, mammary gland ([4]; ID (30 min)): 0.018 µmol/g | Drug per gram tissue, surrounding skin ([4]; ID (30 min)): 0.03 µmol/g | Drug per gram tissue, mammary gland ([4]; IV (30 min)): 0.009 µmol/g | Drug per gram tissue, surrounding skin ([4]; IV (30 min)): 0 µmol/g | 5FU in vital organs of the body ([4]; intraductal and intravenous injection, 30 minutes): significant amount of 5FU in vital organs of the body including kidneys, liver and brain | Drug per gram tissue of mammary papilla ([4]; intraductal injection 50 μl of 10 mg/ml 5FU in saline): 0.16 µmol/g | Drug per gram tissue of mammary papilla ([4]; intravenous injection 50 μl of 10 mg/ml 5FU in saline): 0 µmol/g | Log P [5]: −0.89 | Profile of 5FU in plasma ([6]; intravenous injection): quickly eliminating from the blood | Retention of 5FU in mammary papilla ([6]; intravenous injection, 30 minutes): some accumulation of 5FU into the mammary papilla | 5FU retention into the vital organs (kidneys, heart, liver, lungs, spleen and brain) ([6]; topical application (transmammary and transdermal) vs intravenous injection): several folds lower than that after intravenous injection | 5FU in blood / plasma ([6]; topical delivery (transmammary and transdermal), 6 h): no amount of 5FU was observed into the blood; also recorded: below the level of detection | Retention of 5FU in mammary papilla ([6]; transdermal treatment, 6 h): no 5FU was observed into the mammary papilla | Amount of 5FU in mammary gland ([6]; transmammary treatment 250 μl of 10 mg/ml for 6 h, compared with intravenous and transdermal): highest amount of 5FU in mammary gland | Retention of 5FU in mammary papilla ([6]; transmammary treatment, 6 h): significant retention of 5FU into the mammary papilla
